# According to the NIST ThermoML archive (doi:10.1016/j.jct.2017.03.004):
# Numbers after ± are expanded uncertainties.
# Test: activity coefficient (dimensionless); of the first substance listed, at infinite dilution; xn = mol fraction of the nth substance listed
# Details: 101.33 kPa, Liquid, Chromatography, x1 = 0
Compound,activity coefficient (328.15 K),activity coefficient (338.15 K),activity coefficient (348.15 K),activity coefficient (358.15 K),activity coefficient (318.15 K),activity coefficient (368.15 K),activity coefficient (298.15 K),activity coefficient (308.15 K)
O [water] + N#C[N-]C#N.OCCC[n+]1ccccc1,0.399 ± 0.034,0.411 ± 0.034,0.421 ± 0.035,0.432 ± 0.035,,,,
CCCc1ccccc1 [propylbenzene] + N#C[N-]C#N.OCCC[n+]1ccccc1,30.8 ± 2.1,31.1 ± 2.1,31.3 ± 2.1,31.6 ± 2.2,30.5 ± 2.1,31.8 ± 2.2,,
CCOC(C)(C)C [2-ethoxy-2-methylpropane] + N#C[N-]C#N.OCCC[n+]1ccccc1,83.9 ± 5.8,82.4 ± 5.6,80.7 ± 5.5,79.1 ± 5.4,85.6 ± 5.9,77.9 ± 5.3,,
C=CCCCC [hex-1-ene] + N#C[N-]C#N.OCCC[n+]1ccccc1,115 ± 8,111 ± 8,107 ± 7,103 ± 7,120 ± 8,,130 ± 9,125 ± 9
C=CCCC [1-pentene] + N#C[N-]C#N.OCCC[n+]1ccccc1,63.1 ± 4.3,,,,66.3 ± 4.5,,74.6 ± 5.1,70.2 ± 4.8
c1ccsc1 [thiophene] + N#C[N-]C#N.OCCC[n+]1ccccc1,2.71 ± 0.18,2.81 ± 0.19,2.93 ± 0.2,3.03 ± 0.21,2.6 ± 0.18,3.14 ± 0.21,,
CC(C)(C)O [2-methylpropan-2-ol] + N#C[N-]C#N.OCCC[n+]1ccccc1,3.08 ± 0.21,3.07 ± 0.21,3.07 ± 0.21,3.07 ± 0.21,3.08 ± 0.21,3.05 ± 0.21,,
CO [methanol] + N#C[N-]C#N.OCCC[n+]1ccccc1,0.692 ± 0.047,0.703 ± 0.047,0.713 ± 0.048,0.725 ± 0.048,0.682 ± 0.046,0.733 ± 0.049,,
CCC(=O)CC [pentan-3-one] + N#C[N-]C#N.OCCC[n+]1ccccc1,5.92 ± 0.4,6.15 ± 0.42,6.36 ± 0.43,6.57 ± 0.45,5.68 ± 0.39,6.79 ± 0.46,,
"Cc1cccc(C)c1 [1,3-dimethylbenzene] + N#C[N-]C#N.OCCC[n+]1ccccc1",14.8 ± 1,15.3 ± 1,15.7 ± 1.1,16.1 ± 1.1,14.4 ± 1,16.5 ± 1.1,,
C1CCCCC1 [cyclohexane] + N#C[N-]C#N.OCCC[n+]1ccccc1,99.8 ± 6.8,95 ± 6.5,90.7 ± 6.2,86.9 ± 6,105 ± 7,,118 ± 8,111 ± 8
c1ccccc1 [benzene] + N#C[N-]C#N.OCCC[n+]1ccccc1,5.18 ± 0.35,5.36 ± 0.37,5.53 ± 0.38,5.69 ± 0.39,5.02 ± 0.34,5.85 ± 0.4,,
CC(C)CO [2-methyl-1-propanol] + N#C[N-]C#N.OCCC[n+]1ccccc1,3.26 ± 0.22,3.2 ± 0.22,3.15 ± 0.21,3.11 ± 0.21,3.31 ± 0.23,3.06 ± 0.21,,
C=C(C)c1ccccc1 [(1-methylethenyl)benzene] + N#C[N-]C#N.OCCC[n+]1ccccc1,12 ± 0.8,12.7 ± 0.9,13.3 ± 0.9,14 ± 1,11.3 ± 0.8,14.6 ± 1,,
c1ccncc1 [pyridine] + N#C[N-]C#N.OCCC[n+]1ccccc1,1.48 ± 0.1,1.56 ± 0.1,1.64 ± 0.11,1.72 ± 0.12,1.39 ± 0.09,1.8 ± 0.12,,
CCc1ccccc1 [ethylbenzene] + N#C[N-]C#N.OCCC[n+]1ccccc1,16.4 ± 1.1,16.8 ± 1.1,17.1 ± 1.2,17.4 ± 1.2,16.1 ± 1.1,17.7 ± 1.2,,
CCOC(C)=O [ethyl acetate] + N#C[N-]C#N.OCCC[n+]1ccccc1,6.6 ± 0.45,6.81 ± 0.46,7.02 ± 0.48,7.23 ± 0.49,6.37 ± 0.43,7.43 ± 0.51,,
CCC(C)(C)OC [2-methoxy-2-methylbutane] + N#C[N-]C#N.OCCC[n+]1ccccc1,42 ± 2.9,42.1 ± 2.9,42.3 ± 2.9,42.5 ± 2.9,41.8 ± 2.9,42.6 ± 2.9,,
C1CCCC1 [cyclopentane] + N#C[N-]C#N.OCCC[n+]1ccccc1,57.4 ± 3.9,54.9 ± 3.8,52.7 ± 3.6,50.5 ± 3.5,60.4 ± 4.1,,67 ± 4.6,63.5 ± 4.3
CCCO [propan-1-ol] + N#C[N-]C#N.OCCC[n+]1ccccc1,2.03 ± 0.14,2.02 ± 0.14,2.02 ± 0.14,2.01 ± 0.14,2.03 ± 0.14,2.01 ± 0.14,,

Compound,activity coefficient (328.15 K),activity coefficient (338.15 K),activity coefficient (348.15 K),activity coefficient (358.15 K),activity coefficient (318.15 K),activity coefficient (368.15 K),activity coefficient (298.15 K),activity coefficient (308.15 K)
CC(C)=O [acetone] + N#C[N-]C#N.OCCC[n+]1ccccc1,1.97 ± 0.13,2.05 ± 0.14,2.14 ± 0.15,2.23 ± 0.15,1.87 ± 0.13,2.31 ± 0.16,,
CCCOCCC [dipropyl ether] + N#C[N-]C#N.OCCC[n+]1ccccc1,89.2 ± 6.1,86.8 ± 5.9,84.2 ± 5.8,81.9 ± 5.6,92.3 ± 6.3,79.7 ± 5.5,,
C1=CCCCC1 [cyclohexene] + N#C[N-]C#N.OCCC[n+]1ccccc1,35.8 ± 2.4,34.8 ± 2.4,34 ± 2.3,33.4 ± 2.3,36.6 ± 2.5,,38.7 ± 2.6,37.6 ± 2.6
CCCC(C)=O [pentan-2-one] + N#C[N-]C#N.OCCC[n+]1ccccc1,5.77 ± 0.39,5.96 ± 0.41,6.14 ± 0.42,6.33 ± 0.43,5.58 ± 0.38,6.5 ± 0.44,,
CCCCCCC [heptane] + N#C[N-]C#N.OCCC[n+]1ccccc1,441 ± 30,407 ± 28,377 ± 26,351 ± 24,481 ± 33,,582 ± 40,527 ± 36
CC(C)OC(C)C [diisopropyl ether] + N#C[N-]C#N.OCCC[n+]1ccccc1,102 ± 7,99.8 ± 6.8,97.5 ± 6.7,95.4 ± 6.5,105 ± 7,93.6 ± 6.4,,
C=CCCCCCC [oct-1-ene] + N#C[N-]C#N.OCCC[n+]1ccccc1,326 ± 22,310 ± 21,295 ± 20,282 ± 19,346 ± 24,,391 ± 27,367 ± 25
CCCCCCCC [octane] + N#C[N-]C#N.OCCC[n+]1ccccc1,710 ± 49,654 ± 45,605 ± 42,564 ± 39,772 ± 53,,930 ± 64,846 ± 58
"Cc1ccccc1C [1,2-dimethylbenzene] + N#C[N-]C#N.OCCC[n+]1ccccc1",11.5 ± 0.8,11.9 ± 0.8,12.3 ± 0.8,12.7 ± 0.9,11.1 ± 0.8,13 ± 0.9,,
CCCCCCCCCC [decane] + N#C[N-]C#N.OCCC[n+]1ccccc1,1580 ± 110,1450 ± 100,1340 ± 92,1240 ± 86,1730 ± 120,,2100 ± 140,1900 ± 130
"CC(C)CC(C)(C)C [2,2,4-trimethylpentane] + N#C[N-]C#N.OCCC[n+]1ccccc1",579 ± 40,,,,640 ± 44,,800 ± 55,714 ± 49
C1CCOC1 [tetrahydrofuran] + N#C[N-]C#N.OCCC[n+]1ccccc1,3.25 ± 0.22,3.38 ± 0.23,3.53 ± 0.24,3.66 ± 0.25,3.1 ± 0.21,3.79 ± 0.26,,
C1CCCCCCC1 [cyclooctane] + N#C[N-]C#N.OCCC[n+]1ccccc1,188 ± 13,178 ± 12,168 ± 12,159 ± 11,201 ± 14,,231 ± 16,215 ± 15
CCCCCC [hexane] + N#C[N-]C#N.OCCC[n+]1ccccc1,269 ± 18,,,,296 ± 20,,364 ± 25,328 ± 23
CCCC=O [butanal] + N#C[N-]C#N.OCCC[n+]1ccccc1,4.21 ± 0.29,4.3 ± 0.29,4.39 ± 0.3,4.49 ± 0.31,4.09 ± 0.28,4.57 ± 0.31,,
CC1CCCCC1 [methylcyclohexane] + N#C[N-]C#N.OCCC[n+]1ccccc1,170 ± 12,160 ± 11,150 ± 10,143 ± 10,182 ± 13,,210 ± 14,195 ± 13
C=Cc1ccccc1 [styrene] + N#C[N-]C#N.OCCC[n+]1ccccc1,7.23 ± 0.49,7.51 ± 0.51,7.79 ± 0.53,8.06 ± 0.55,6.93 ± 0.47,8.32 ± 0.57,,
"Cc1ccc(C)cc1 [1,4-dimethylbenzene] + N#C[N-]C#N.OCCC[n+]1ccccc1",14.3 ± 1,14.8 ± 1,15.3 ± 1,15.7 ± 1.1,13.8 ± 0.9,16.2 ± 1.1,,
CC(C)O [propan-2-ol] + N#C[N-]C#N.OCCC[n+]1ccccc1,2.2 ± 0.2,2.18 ± 0.15,2.15 ± 0.15,2.13 ± 0.14,2.24 ± 0.15,2.11 ± 0.14,,
CCC[N+](=O)[O-] [1-nitropropane] + N#C[N-]C#N.OCCC[n+]1ccccc1,3.08 ± 0.21,3.18 ± 0.22,3.28 ± 0.22,3.37 ± 0.23,2.96 ± 0.2,3.47 ± 0.24,,

Compound,activity coefficient (328.15 K),activity coefficient (338.15 K),activity coefficient (348.15 K),activity coefficient (358.15 K),activity coefficient (318.15 K),activity coefficient (368.15 K),activity coefficient (298.15 K),activity coefficient (308.15 K)
CCCC(=O)OC [methyl butanoate] + N#C[N-]C#N.OCCC[n+]1ccccc1,10.6 ± 0.7,10.9 ± 0.7,11.2 ± 0.8,11.5 ± 0.8,10.3 ± 0.7,11.7 ± 0.8,,
C#CCCCCCC [1-octyne] + N#C[N-]C#N.OCCC[n+]1ccccc1,70.2 ± 4.8,71.1 ± 4.9,71.8 ± 4.9,72.6 ± 5,69.4 ± 4.8,,67.5 ± 4.6,68.5 ± 4.7
CC(C)c1ccccc1 [isopropylbenzene] + N#C[N-]C#N.OCCC[n+]1ccccc1,29.7 ± 2,29.8 ± 2,30 ± 2.1,30.2 ± 2.1,29.5 ± 2,30.4 ± 2.1,,
CCCCCCCCC [nonane] + N#C[N-]C#N.OCCC[n+]1ccccc1,1080 ± 74,985 ± 68,906 ± 62,837 ± 58,1180 ± 81,,1450 ± 100,1300 ± 90
CCC(C)O (stereo not given) [butan-2-ol] + N#C[N-]C#N.OCCC[n+]1ccccc1,3.18 ± 0.22,3.13 ± 0.21,3.09 ± 0.21,3.05 ± 0.21,3.23 ± 0.22,3.02 ± 0.21,,
C1CCCCCC1 [cycloheptane] + N#C[N-]C#N.OCCC[n+]1ccccc1,130 ± 9,122 ± 8,115 ± 8,109 ± 7,139 ± 10,,161 ± 11,149 ± 10
CCCCCO [pentan-1-ol] + N#C[N-]C#N.OCCC[n+]1ccccc1,4.89 ± 0.33,4.81 ± 0.33,4.74 ± 0.32,4.68 ± 0.32,4.98 ± 0.34,4.61 ± 0.31,,
C#CCCCCC [1-heptyne] + N#C[N-]C#N.OCCC[n+]1ccccc1,38.2 ± 2.6,39 ± 2.7,39.7 ± 2.7,40.4 ± 2.8,37.4 ± 2.6,,35.7 ± 2.4,36.5 ± 2.5
COC(C)=O [methyl ethanoate] + N#C[N-]C#N.OCCC[n+]1ccccc1,3.43 ± 0.23,3.56 ± 0.24,3.71 ± 0.25,3.84 ± 0.26,3.28 ± 0.22,3.98 ± 0.27,,
C#CCCCC [1-hexyne] + N#C[N-]C#N.OCCC[n+]1ccccc1,22.5 ± 1.5,23.4 ± 1.6,24.3 ± 1.7,25.2 ± 1.7,21.5 ± 1.5,,19.8 ± 1.4,20.6 ± 1.4
Cc1ccccc1 [toluene] + N#C[N-]C#N.OCCC[n+]1ccccc1,8.72 ± 0.59,9.03 ± 0.62,9.31 ± 0.64,9.58 ± 0.65,8.44 ± 0.58,9.85 ± 0.67,,
CCO [ethanol] + N#C[N-]C#N.OCCC[n+]1ccccc1,1.3 ± 0.08,1.3 ± 0.08,1.31 ± 0.09,1.31 ± 0.09,1.3 ± 0.08,1.31 ± 0.09,,
CCC(C)CC [3-methylpentane] + N#C[N-]C#N.OCCC[n+]1ccccc1,272 ± 19,,,,286 ± 20,,321 ± 22,302 ± 21
CCOCC [diethyl ether] + N#C[N-]C#N.OCCC[n+]1ccccc1,21.5 ± 1.5,21.5 ± 1.5,21.5 ± 1.5,21.4 ± 1.5,21.5 ± 1.5,21.4 ± 1.5,,
C=CCCCCC [1-heptene] + N#C[N-]C#N.OCCC[n+]1ccccc1,190 ± 13,182 ± 13,174 ± 12,167 ± 11,200 ± 14,,223 ± 15,211 ± 15
C=CCCCCCCCC [1-decene] + N#C[N-]C#N.OCCC[n+]1ccccc1,829 ± 57,777 ± 54,731 ± 50,691 ± 48,887 ± 61,,1030 ± 71,954 ± 66
COC(C)(C)C [2-methoxy-2-methylpropane] + N#C[N-]C#N.OCCC[n+]1ccccc1,25.5 ± 1.7,25.9 ± 1.8,26.2 ± 1.8,26.6 ± 1.8,25.1 ± 1.7,26.9 ± 1.8,,
CC#N [acetonitrile] + N#C[N-]C#N.OCCC[n+]1ccccc1,1.29 ± 0.08,1.34 ± 0.09,1.38 ± 0.09,1.43 ± 0.09,1.24 ± 0.08,1.48 ± 0.1,,
